We go through 5 compounds from ChEMBL document CHEMBL3286135, “Antiviral C-25 epimers of 26-acetoxy steroids from the South China Sea gorgonian Echinogorgia rebekka” (J Nat Prod, 2014).

In general, IC50 refers to the point on the concentration scale where inhibition reaches its midpoint.

The source made the active and inactive calls. No cut-off for these calls is given here.

The test system of data set [1] is Vibrio parahaemolyticus. Nature of the data set: Antibacterial activity against Vibrio parahaemolyticus by broth dilution assay. Type of data set: functional, organism-based. (In general: In broth dilution the organism is exposed to a series of concentrations in liquid medium.)
Data set [2] relates to Escherichia coli. The experiment in a line: Antibacterial activity against Escherichia coli by broth dilution assay. The data set is classed as functional, organism-based.
In data set [3] the test system is HeLa. The experiment in a line: Cytotoxicity against human HeLa cells by SRB assay. The data set is classed as functional, cell-based. (The SRB assay estimates cell density from bound dye.)
For data set [4], the system named is A549. The experiment in a line: Cytotoxicity against human A549 cells by SRB assay. Type of data set: functional, cell-based.
In data set [5] the test system is Pseudomonas putida. The experiment in a line: Antibacterial activity against Pseudomonas putida by broth dilution assay. Type of data set: functional, organism-based.
Data set [6] concerns Staphylococcus epidermidis. Nature of the data set: Antibacterial activity against Staphylococcus epidermidis by broth dilution assay. Type of data set: functional, organism-based.
Data set [7] has as its system Respiratory syncytial virus. Nature of the data set: Antiviral activity against Respiratory syncytial virus infected in human Hep2 cells assessed as virus-induced cytopathicity by XTT assay. Type of data set: functional, organism-based. To be noted: HEp-2. Background: Damage to the host cells serves as the signal in cytopathic effect assays.
Data set [8] is described as follows: Therapeutic ratio of TC50 for mock-infected human Hep2 cells to IC50 for Respiratory syncytial virus infected in human Hep2 cells. To be noted: read-out: TI. Type of data set: ADME, cell-based, HEp-2.
Data set [9] has as its system Nocardia brasiliensis. The experiment in a line: Antibacterial activity against Nocardia brasiliensis by broth dilution assay. The data set is classed as functional, organism-based.
The test system of data set [10] is Bacillus cereus. Nature of the data set: Antibacterial activity against Bacillus cereus by broth dilution assay. Type of data set: functional, organism-based.
The nature of data set [11]: Cytotoxicity against mock-infected human Hep2 cells by XTT assay. Type of data set: cell-based, HEp-2. The note with it: read-out: TC50 (the source's name).
In data set [12] the test system is HL-60. The experiment in a line: Cytotoxicity against human HL60 cells by MTT assay. The data set is classed as functional, cell-based.
Data set [13] relates to K562. The experiment in a line: Cytotoxicity against human K562 cells by MTT assay. Type of data set: functional, cell-based.
The test system of data set [14] is Staphylococcus aureus. Nature of the data set: Antibacterial activity against Staphylococcus aureus by broth dilution assay. Type of data set: functional, organism-based.
Data set [15] has as its system Tetragenococcus halophilus. Nature of the data set: Antibacterial activity against Tetragenococcus halophilus by broth dilution assay. The data set is classed as functional.

`CC(=O)OC[C@H](C)[C@H](C)/C=C/[C@@H](C)[C@H]1CC[C@H]2[C@@H]3CC(=O)[C@@]4(O)C[C@@H](O)CC[C@]4(C)[C@H]3CC[C@]12C`: the result in [1], in data set [2], in [3], in data set [4], in data set [5] and in [6] was inactive. In addition, the result in data set [9], in data set [10], in data set [12], in [13], in data set [14] and in data set [15] was inactive. Besides, in data set [7], the IC50 came out at 0.19 µM. Also, in data set [8], the selectivity ratio amounted to 128. Also, the CC50 in data set [11] is 24.4 µM.

With `CC(=O)OC[C@@H](C)C/C=C/[C@@H](C)[C@H]1CC[C@H]2[C@@H]3CC(=O)[C@@]4(O)C[C@@H](O)CC[C@]4(C)[C@H]3CC[C@]12C`, the outcome in [1], in data set [2], in [5], in data set [6], in [9] and in data set [10] was inactive. Also, the outcome in data set [14] and in data set [15] was inactive. For the same compound, the IC50 in [7] came out at 0.78 µM; in data set [13] it was 0.85 µM. Further, the selectivity ratio in data set [8] worked out at 16. Also, the CC50 in [11] worked out at 12.6 µM.

Regarding `CC(=O)OCC(C)/C=C/[C@@H](C)[C@H]1CC[C@H]2[C@@H]3CC(=O)[C@@]4(O)C[C@@H](O)CC[C@]4(C)[C@H]3CC[C@]12C` (stereo not given in full), the outcome in data set [1], in data set [2], in [5], in data set [6], in data set [9] and in data set [10] was inactive. For the same compound, the outcome in data set [14] and in data set [15] was inactive. The IC50 in data set [7] was 3.23 µM; in data set [13] it was 4.19 µM. Also, the selectivity ratio in [8] was determined as 4. In [11], the CC50 is 12.9 µM.

For `CC(=O)OC[C@@H](C)[C@H](C)/C=C/[C@@H](C)[C@H]1CC[C@H]2[C@@H]3CC(=O)[C@@]4(O)C[C@@H](O)CC[C@]4(C)[C@H]3CC[C@]12C`, the outcome in data set [1], in [2], in [5], in [6], in data set [9] and in [10] was inactive. In addition, the result in [14] and in data set [15] was inactive. Further, the IC50 is 0.19 µM in data set [7], 8.99 µM in data set [12] and 6.36 µM in data set [13]. In addition, in [8], the selectivity ratio turned out to be 2. For the same compound, in data set [11], the CC50 was determined as 0.38 µM.

As to `NC(=O)c1ncn([C@@H]2O[C@H](CO)[C@@H](O)[C@H]2O)n1` [RIBAVIRIN], in data set [7], the half-maximal inhibitory concentration (IC50) turned out to be 20.4 µM. Also, the selectivity ratio in data set [8] is > 147. The CC50 in data set [11] was > 3000 µM.
